The source of these data is US20040122209A1, “Products for regulating the degradation of collagen and methods for identifying same” (Shriners Hospital For Children, priority 2002, published 2004).

A value given as a limit tells only on which side of the number the result lay.

The test system of assay [1] is normal human adult articular cartilage explants. Put plainly: Proteoglycan release and content (DMMB dye assay) in human explant culture. In kind it is cell-based. The method, then:
Cumulative proteoglycan (mainly aggrecan) released into medium was calculated by summation of proteoglycan contents in medium at each medium change of every four days. Cartilage explants were maintained for up to 16 days cultured with or without CB12-II at 10 μM. Sulfated glycosaminoglycan in medium was assayed by dimethylmethylene blue (DMMB) method. Data are expressed as μg GAG release per wet weight of cartilage.
The cartilages were prepared as previously described (Dahlberg, L. et al. (2000) supra. In brief, the cartilage samples were washed three times with basal culture medium containing Dulbecco's modified Eagle's medium (DMEM; Gibco BRL, Life Technologies, Grand Island, N.Y.) with 20 mM HEAPS buffer (pH 7.4) (Gibco BRL), 45 mM NaHCO3, 100 units/ml penicillin, 100 μg/ml streptomycin and 150 μg/ml gentamycin sulphate (Medium A). Full-depth cartilage slices from a single area, around 20 mm×20 mm were cut vertical to the articular surface and then into cubes of approximately 2 mm×2 mm (5-7 cubes were randomly obtained and wet weights about 50-70 mg/well determined).
The cartilage was assigned to 48 well plate (ca 40 mg/well) and kept in Medium A supplemented with 50 μg/ml ascorbic acid, 0.1 mg/bovine serum albumin, 50 μg/ml insulin, 5.0 μg/ml and 5.0 μg/ml sodium DMEM alone at 37° C. in 95% air/5% CO2. The cartilage was precultured for 2 days and medium was changed at day 0. […]
In order to show the specificity of the peptide fragments of one embodiment on degradation of type II collagen as compared with proteoglycan, primarily aggrecan, sulphated glycosaminoglycan (GAG) content was determined in both the α-chymotrypsin and proteinase K digests for total proteoglycan (predominantly aggrecan) content in cell pellets, cartilage explants and also in conditioned media. […]
In order to examine any effects of SP on proteoglycan catabolism in normal human articular cartilage, cumulative proteoglycan (mainly aggrecan) release into medium and proteoglycan content in cartilage were determined by DMMB (1,9-dimethylmethyleneblue) dye assay.

The test system of assay [2] is adult bovine articular cartilage. As to the kind of experiment: RT-PCR of hypertrophy and degradation genes in bovine articular cartilage explant culture. In kind it is cell-based. On the procedure:
Total RNA was isolated from chondrocytes or cartilage explants by the guanidine isothiocyanate procedure according to Chomczynski and Sacchi (Chomczynski, P. et al., Anal. Biochem. 162:156-9 (1987)) with some modifications. Briefly, chondrocytes (1-2×10^6 cells) or cartilage tissue (200-300 mg) were solubilized in solution D (4 M guanidine isothiocyanate, 20 mM sodium acetate/pH 5.2, 0.1 M 2-mercaptoethanol and 0.5% N-lauroylsarcosine). One volume of isopropanol was added to the mixture and all proteins and nucleic acids were precipitated at −20° C. overnight. […] The total RNA pellet was resuspended in diethyl pyrocarbonate-treated (DEPC) water and the amount of total RNA was measured by reading optical density at 260 nm. […]
One microliter of reverse transcribed total RNA was incubated with 2.5 U of AmpliTaq™ DNA polymerase (Perkin Elmer, Branchburg, N.J.) in 50 mM KCl, 1.5 mM MgCl2, 10 mM Tris-HCl, pH 8.3, 200 μM dNTP mix and 0.5 μmol each of oligonucleotide primers in 50 μl reaction mixture. […] The digital images of the gel were analyzed using NIH 1.60 imaging software to evaluate the pixel intensity of the band of the PCR products. […] The band intensities were determined to be below saturation. […]
MMP-13 expression was maximal by 12 days. Gene expression was determined by RT-PCR analyses of mRNA in the manner used to detect expression of MMPs and cytokines described elsewhere. […]

Turning to ERGPPGPQGARGFPGTPGLPGVK [CB12-II], in assay [1] (10 μM, up to 16 days), the “cumulative proteoglycan release, SP-treated versus control specimens” value is listed as “no significant difference” and the “proteoglycan release into medium” value was “did not induce proteoglycan release”. Besides, in assay [1] (data not shown), the “proteoglycan content in cartilage explants” value is “nor did it decrease proteoglycan content”. The “time at which MMP-13 expression was maximal” value in assay [2] is reported as at most 12 days. In addition, in assay [2] (induction within a 24-48 hr period), the “expression of genes characteristic of chondrocyte hypertrophy (COLX, MMP-9, TGF-B1, IHH, MMP-13, CBFA1, SOX 9, bFGF, pTHrP, caspase-3, MT1-MMP, IL-1B, MMP-1)” value is listed as “rapid induction”.
